Source: US20100022018A1 (priority 2006, published 2010)
Where two headings read alike, the source gives them in different places.

Tests used:
Assay type in all cases: biochemical
papain [1] = biological target: T1, papain (Carica papaya, UniProt P00784); test: Inactivation of activated papain by metal salts; conditions: metal salt added to equal 1.1× the molar amount of papain
T1 construct: purchased Sigma Chemical Company (St. Louis, Mo.)
T1 sequence (P00784 134-345): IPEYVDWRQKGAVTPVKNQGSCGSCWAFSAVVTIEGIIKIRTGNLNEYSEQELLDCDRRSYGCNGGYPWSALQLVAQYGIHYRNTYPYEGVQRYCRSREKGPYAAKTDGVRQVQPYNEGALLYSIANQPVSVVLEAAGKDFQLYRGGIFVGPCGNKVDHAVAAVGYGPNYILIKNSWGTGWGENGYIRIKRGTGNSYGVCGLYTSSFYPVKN
Excerpt: Papain was activated as described above, and the DTT was removed by gel filtration using G-25. Papain was then inactivated by adding a slight molar excess of a mono, di, tri, or tetra valent metal. […] The inhibition by the metals was essentially instantaneous.
This papain was used to assay H2S as follows.

[2] = biological target: T2, papain inactivated by methyl methanethiolsulfonate (Carica papaya, UniProt P00784)
T2 construct: purchased Sigma Chemical Company (St. Louis, Mo.)
T2 sequence (P00784 134-345): T1 sequence (P00784 134-345)

[3] = biological target: T3, papain inactivated by 4,4′-dithiobis-pyridine (Carica papaya, UniProt P00784)
T3 construct: purchased Sigma Chemical Company (St. Louis, Mo.)
T3 sequence (P00784 134-345): T1 sequence (P00784 134-345)

[4] = biological target: T4, papain inactivated by 2,2′-dithiobis-pyridine (Carica papaya, UniProt P00784)
T4 construct: purchased Sigma Chemical Company (St. Louis, Mo.)
T4 sequence (P00784 134-345): T1 sequence (P00784 134-345)

papain [5] = biological target: T1, papain; test: Background activity of papain inactivated by disulfide-forming reagents; conditions: compared with papain inactivated with methyl methanethiolsulfonate
[6] = 50 pmoles of DTT added, turnover of 600/min
[7] = compared with papain inhibited by methyl methanethiolsulfonate

[Cl][Hg][Cl] [HgCl2]
inhibition of the activity of the activated papain (papain [1]): > 99.9%

O[C@H](CS)[C@H](O)CS (racemic) [DTT, dithiothreitol]
rate of appearance of p-nitroanaline [2]: 0.00026 M/min
amount of active papain in 200 μl [2, 6]: 72 pmol
concentration of active papain needed to generate product at this rate [2, 6]: 360 nM
Δ A410/min ([2]; 10 picomoles of DTT added, 1 minute incubation at 25° C., Tris pH 8.0): 0.52 min⁻¹
Δ A410/min ([2]; 20 picomoles of DTT added, 1 minute incubation at 25° C., Tris pH 8.0): 0.96 min⁻¹
Δ A410/min ([2]; 50 picomoles of DTT added, 1 minute incubation at 25° C., Tris pH 8.0): 1.9 min⁻¹

sodium sulfide
efficiency of reactivation of inactivated papain [3]: somewhat more efficient
molecules of activator for every one molecule of papain activated [2]: ~5
efficiency of reactivation of inactivated papain [4]: somewhat more efficient

O=[N+]([O-])[O-].[Ag+] [AgNO3]
inhibition of the activity of the activated papain (papain [1]): > 99.5%

c1ccc(SSc2ccccn2)nc1 [2,2′-dithiobis-pyridine]
background level of activity exhibited by the inactivated papain (papain [5]): higher than papain inactivated with methyl methanethiolsulfonate

c1cc(SSc2ccncc2)ccn1 [4,4′-dithiobis-pyridine]
background level of activity exhibited by the inactivated papain (papain [5]): higher than papain inactivated with methyl methanethiolsulfonate

N[C@@H](CS)C(=O)O [Cysteine, cysteine]
efficiency of reactivation of inactivated papain [3, 7]: somewhat more efficient
Δ A410/min ([2]; 20 picomoles added, 1 min incubation): 0.45 min⁻¹
Δ A410/min ([2]; 50 picomoles added, 1 min incubation): 1.1 min⁻¹
molecules of papain activated for each molecule of activator ([2]; disulfide linkage inactivated papain): < 1
efficiency of reactivation of inactivated papain [4, 7]: somewhat more efficient
